Measurements taken from patent US20240018146A1, “COMPOSITIONS AND METHODS OF USING THE SAME FOR TREATMENT OF NEURODEGENERATIVE AND MITOCHONDRIAL DISEASE” (MITOKININ, INC., priority 2020, published 2024).
Where two headings read alike, the source gives them in different places.

Columns and labels:
Assay type in all cases: cell-based
HeLa MKYP cells [1] = assay: Human mitophagy assay (HeLa mKeima assay, FACS)
Method in brief: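 HeLa cells carrying the pH-sensitive mtKeima tag incubated 16 h with compound at several concentrations, then 1 uM FCCP/oligomycin for 6 h. FACS detects mitochondria in lysosomes through the Keima emission shift, quantified as percentage of cells in mitophagy.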

HeLa MKYP cells [2] = assay: Cell death measured by DAPI staining, with 1 μM FCCP/oligomycin or no toxin (no FO)
Method in brief: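 HeLa MKYP cells were treated with compounds alongside 1 μM FCCP/oligomycin or no toxin for 6 or 6.5 h. Cell death was scored by DAPI staining, with H2O2 treatment as the death control.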

[3] = Mitotoxicity / Mitotox safety margin (therapeutic window)
[4] = read-out: Mitophagy induction EC50
[5] = Homo sapiens, HeLa, read-out: Mitophagy induction EC50

SMILES | EC50 (HeLa MKYP cells [1]; HeLa mKeima assay, read-out: Mitophagy EC50 (HeLa mKeima assay)) | EC50 (HeLa MKYP cells [1]; [4]) | Max cell death at 25 μM compound, 1 uM FO (%) (HeLa MKYP cells [2]; 25 μM compound, 1 uM FO) | Cell death at 25 μM (no FO) (%) (HeLa MKYP cells [2]; 25 μM compound, no FO) | Highest safe dose (cytotoxicity; no FO; safe means DAPI+ <20%) (HeLa MKYP cells [2]; no FO) | Max % death with 1 μM FO (HeLa MKYP cells [2]) | Mitotox safety margin (Therapeutic window) [3] | Mito-Safety Index (highest safe dose/EC50) [3] | Highest safe dose (μM) (mitotox or cytotox) [3] | EC50 (HeLa MKYP cells [1]; [5]) | mitotoxicity ([3]; FIG. 5-7)
Fc1ccc2c(c1)CC[C@H](N1CCOCC1)[C@H]2Nc1ncnc2[nH]c(C3CC3)cc12 (single isomer, unassigned) [EP-0039746] | 250 nM | 290 nM | 15.3% | 3.3% | 25.0 µM | 13.4% | +++ (+++ = 20 < x < 30) | 9.48 | 2.8 µM | – | –
N#Cc1ccc2c(c1)CC[C@H](N1C[C@H]3COC[C@H]3C1)[C@H]2Nc1ncnc2[nH]c(C(F)(F)F)cc12 [EP-0040120] | – | – | – | – | 8.3 µM | 93.5% | – | – | 8.3 µM | 2300 nM | –
C[C@@H]1CN([C@H]2COc3cc(F)ccc3[C@@H]2Nc2ncnc3[nH]c(C(F)(F)F)cc23)C[C@H](C)O1 [EP-0040946] | – | – | – | – | – | 4.8% | – | – | 25.0 µM | > 25000 nM | –
FC(F)(F)c1cc2c(NC3c4ccccc4OCC3N3C[C@@H]4COC[C@H]4C3)ncnc2[nH]1 (stereo partly shown) [EP-0040677] | – | – | – | – | 25.0 µM | 11.1% | – | 77.08 | 25.0 µM | 320 nM | –
C[C@@H]1CN([C@@H]2COc3ccccc3[C@H]2Nc2ncnc3[nH]c(C(F)(F)F)cc23)C[C@H](C)O1 [EP-0040943] | – | – | – | – | 25.0 µM | 20.9% | – | 47.50 | 2.3 µM | 50 nM | –
c1ccc2c(c1)OC[C@@H](N1C[C@H]3COC[C@H]3C1)[C@@H]2Nc1ncnc2[nH]c(C3CC3)cc12 (single isomer, unassigned) [EP-0040392] | – | – | – | – | 25.0 µM | 11.8% | – | 153.83 | 16.6 µM | 110 nM | –
C[C@@H]1CN([C@H]2COc3cc(F)ccc3[C@@H]2Nc2ncnc3[nH]c(C4CC4)cc23)CCO1 [EP-0041122] | – | – | – | – | 16.7 µM | 16.9% | – | 37.43 | 2.0 µM | 50 nM | –
C[C@@H]1CN([C@H]2COc3ccccc3[C@@H]2Nc2ncnc3[nH]c(C4CC4)cc23)C[C@H](C)O1 [EP-0040944] | – | – | – | – | 25.0 µM | 6.3% | – | 20.51 | 25.0 µM | 1220 nM | –
Oc1ccc2c(c1)CCC[C@H]2Nc1ncnc2[nH]c(C(F)(F)F)cc12 (single isomer, unassigned) [EP-0038508] | – | – | – | – | – | – | – | – | – | – | low mitotoxicity
C[C@@H]1CN([C@H]2CCc3ccccc3[C@@H]2Nc2ncnc3[nH]c(C(F)(F)F)cc23)CCO1 (single isomer, unassigned) [EP-0040491] | – | – | – | – | 25.0 µM | 19.4% | – | 49.72 | 3.7 µM | 70 nM | –
COC1CN([C@@H]2COc3ccccc3[C@H]2Nc2ncnc3[nH]c(C4CC4)cc23)C1 [EP-0040848] | – | – | – | – | 25.0 µM | 10.6% | – | 152.94 | 25.0 µM | 160 nM | –
COC1CN([C@H]2COc3ccccc3[C@@H]2Nc2ncnc3[nH]c(C(F)(F)F)cc23)C1 [EP-0040849] | – | 9590 nM | – | – | 25.0 µM | 5.2% | – | 2.61 | 25.0 µM | – | –
FC(F)(F)c1cc2c(N[C@H]3c4ccccc4CC[C@@H]3C3CCOCC3)ncnc2[nH]1 (single isomer, unassigned) [EP-0040580] | – | – | – | – | 25.0 µM | 17.1% | – | 68.72 | 5.5 µM | 80 nM | –
Fc1ccc2c(c1)OC[C@H](N1C[C@@H]3COC[C@H]3C1)[C@H]2Nc1ncnc2[nH]c(C3CC3)cc12 (single isomer, unassigned) [EP-0040644] | – | 340 nM | – | – | 25.0 µM | 8.1% | – | 72.77 | 25.0 µM | – | –
COC[C@@H]1CCCN1[C@H]1COc2ccccc2[C@@H]1Nc1ncnc2[nH]c(C(F)(F)F)cc12 (single isomer, unassigned) [EP-0041491] | – | – | – | – | 25.0 µM | 3.7% | – | – | – | 10200 nM | –
FC(F)(F)c1cc2c(N[C@H]3c4ccc(Br)cc4OC[C@@H]3N3CCOCC3)ncnc2[nH]1 (single isomer, unassigned) [EP-0041021] | – | – | – | – | 25.0 µM | 13.2% | – | – | – | 3380 nM | –
C[C@@H]1CN([C@H]2COc3cc(F)ccc3[C@@H]2Nc2ncnc3[nH]c(C(F)(F)F)cc23)CCO1 [EP-0041087] | – | – | – | – | 25.0 µM | 5.1% | – | – | – | 9380 nM | –
CN1CCN(C2COc3ccccc3C2Nc2ncnc3[nH]c(C4CC4)cc23)CC1=O (racemic) [EP-0041600] | – | – | – | – | 25.0 µM | 4.9% | – | – | – | > 25000 nM | –
FC(F)(F)c1cc2c(N[C@@H]3c4ccccc4OC[C@H]3N3CCOCC3)ncnc2[nH]1 [EP-0040252] | – | – | – | – | 25.0 µM | 9.1% | – | – | – | 1110 nM | –
C[C@@H]1CN([C@H]2COc3ccccc3[C@@H]2Nc2ncnc3[nH]c(C(F)(F)F)cc23)CCO1 [EP-0040955] | – | – | – | – | 25.0 µM | 3.4% | – | – | – | > 25000 nM | –
FC1COCCC1[C@H]1COc2ccccc2[C@@H]1Nc1ncnc2[nH]c(C(F)(F)F)cc12 (single isomer, unassigned) [EP-0041325] | – | 18800 nM | – | – | 25.0 µM | 5.5% | – | – | – | – | –
c1ccc2c(c1)CC[C@H](C1CCOCC1)[C@@H]2Nc1ncnc2[nH]c(C3CC3)cc12 [EP-0040627] | – | – | – | – | 25.0 µM | 4.8% | – | – | – | 24400 nM | –
c1ccc2c(c1)C[C@H](N1C[C@H]3COC[C@H]3C1)[C@H]2Nc1ncnc2[nH]c(C3CC3)cc12 [EP-0040075] | – | – | – | – | 25.0 µM | 6.5% | – | – | – | > 25000 nM | –
c1ccc2c(c1)OCC(N1CC3CCOC3C1)C2Nc1ncnc2[nH]c(C3CC3)cc12 (single isomer, unassigned) [EP-0041669] | – | > 25000 nM | – | – | 25.0 µM | 2.5% | – | – | – | – | –
